Experimental data taken from US9815840B2 (CJ Healthcare Corporation, priority 2013, dated 2017).

Each molecule was assayed against c-Met (Homo sapiens (Human), UniProt P08581) (assay: Analysis of the inhibition of c-Met activity (ADP-Glo Kinase Assay)). Conditions: c-Met enzyme 2 ng/μL, 250 μM G4Y1 peptide, 50 μM ATP, 1 hour at room temperature, luminescence.
Type: biochemical
Protocol: Analysis of the Inhibition of c-Met Activity (ADP-Glo™ Kinase Assay
The inhibitory effect of the compounds of the present invention on the activity of c-Met was confirmed as follows.
Specifically, 250 μM G4Y1 peptide, which serves as a substrate for c-Met enzyme (2 ng/μL), and 50 μM ATP were subjected to an enzyme reaction in a reaction buffer (40 mM Tris-HCl (pH 7.5), 20 mM MgCl2, 0.1 mg/mL bovine serum albumin, and 50 μM DTT). The compounds prepared in Examples and comparative compounds were treated at various concentrations and reacted at room temperature for 1 hour, sequentially added with ADP-Glo™ Reagent and the Kinase detection reagent, and reacted at room temperature for 40 minutes and 30 minutes, respectively.
Then, luminescence of the compounds was measured using the Wallaac Victor 2™ (PerkinElmer life sciences, 1420-042). The activity of c-Met inhibitors was evaluated by analyzing the data based on the measured RLU values. The activity of c-Met inhibitors was evaluated as the percentage of remaining activity of the c-Met enzyme in the samples treated with the compounds at concentrations to be tested, with the RLU value of the sample set at 100% control group.

Chain of c-Met (P08581 25-1390): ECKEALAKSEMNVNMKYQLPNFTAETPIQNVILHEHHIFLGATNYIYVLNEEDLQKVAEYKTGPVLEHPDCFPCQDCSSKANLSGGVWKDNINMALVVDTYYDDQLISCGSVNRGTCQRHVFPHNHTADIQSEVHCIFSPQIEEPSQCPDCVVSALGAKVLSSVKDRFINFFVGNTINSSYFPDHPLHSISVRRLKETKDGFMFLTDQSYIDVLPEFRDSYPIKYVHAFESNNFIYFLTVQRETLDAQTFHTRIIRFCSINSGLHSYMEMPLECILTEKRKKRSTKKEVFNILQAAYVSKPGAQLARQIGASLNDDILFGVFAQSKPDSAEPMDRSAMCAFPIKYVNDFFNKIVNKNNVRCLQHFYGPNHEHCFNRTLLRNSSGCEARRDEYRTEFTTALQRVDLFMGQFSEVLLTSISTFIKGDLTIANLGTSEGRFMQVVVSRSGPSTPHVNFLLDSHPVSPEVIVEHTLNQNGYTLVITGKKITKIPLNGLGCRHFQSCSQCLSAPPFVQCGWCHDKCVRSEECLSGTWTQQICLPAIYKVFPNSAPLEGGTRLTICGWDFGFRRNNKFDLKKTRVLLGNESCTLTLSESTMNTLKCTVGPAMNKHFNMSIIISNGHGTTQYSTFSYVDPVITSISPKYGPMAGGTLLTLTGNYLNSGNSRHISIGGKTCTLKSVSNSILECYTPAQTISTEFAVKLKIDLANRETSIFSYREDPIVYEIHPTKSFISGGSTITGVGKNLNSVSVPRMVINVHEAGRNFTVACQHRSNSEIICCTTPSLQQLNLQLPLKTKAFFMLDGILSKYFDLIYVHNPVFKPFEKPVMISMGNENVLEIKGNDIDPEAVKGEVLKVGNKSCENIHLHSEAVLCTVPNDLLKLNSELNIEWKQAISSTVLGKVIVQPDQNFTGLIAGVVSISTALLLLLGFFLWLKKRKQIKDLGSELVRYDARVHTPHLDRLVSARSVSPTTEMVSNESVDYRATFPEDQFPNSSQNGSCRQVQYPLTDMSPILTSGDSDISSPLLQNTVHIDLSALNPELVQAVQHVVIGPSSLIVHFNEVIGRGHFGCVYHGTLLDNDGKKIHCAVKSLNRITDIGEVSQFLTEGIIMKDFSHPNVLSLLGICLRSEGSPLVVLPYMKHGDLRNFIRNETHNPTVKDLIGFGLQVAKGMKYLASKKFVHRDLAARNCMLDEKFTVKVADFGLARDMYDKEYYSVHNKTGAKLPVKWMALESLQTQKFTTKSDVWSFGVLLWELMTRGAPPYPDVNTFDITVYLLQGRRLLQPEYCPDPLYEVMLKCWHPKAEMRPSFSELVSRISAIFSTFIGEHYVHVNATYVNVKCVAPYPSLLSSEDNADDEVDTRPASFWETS

IC50, < 40 nM:
CCOc1ccn(-c2ccc(F)cc2)c(=O)c1C(=O)Nc1ccc(Oc2ccnn3ccc(-c4ccncc4)c23)c(F)c1 [Example 7]
CCOc1ccn(-c2ccc(F)cc2)c(=O)c1C(=O)Nc1ccc(Oc2ccnn3ccc(-c4cccc(C=O)c4)c23)c(F)c1 [Example 23, 4-ethoxy-N-(3-fluoro-4-((5-(3-formylphenyl)pyrrolo[1,2-b]pyridazin-4-yl)oxy)phenyl)-1-(4-fluorophenyl)-2-oxo-1,2-dihydropyridin-3-carboxamide]
O=C(Nc1ccc(Oc2ccnn3ccc(-c4cccc(CO)c4)c23)c(F)c1)c1cccn(-c2ccc(F)cc2)c1=O [Example 29]
CCOc1ccn(-c2ccc(F)cc2)c(=O)c1C(=O)Nc1ccc(Oc2ccnn3ccc(-c4cccc(C(C)(C)O)c4)c23)c(F)c1 [Example 43, 4-ethoxy-N-(3-fluoro-4-((5-(3-(2-hydroxypropan-2-yl)phenyl)pyrrolo[1,2-b]pyridazin-4-yl)oxy)phenyl)-1-(4-fluorophenyl)-2-oxo-1,2-dihydropyridin-3-carboxamide]
CCOc1ccn(-c2ccc(F)cc2)c(=O)c1C(=O)Nc1ccc(Oc2ccnn3ccc(-c4cccc(C(C)O)c4)c23)c(F)c1 (centres unmarked) [Example 46, 4-ethoxy-N-(3-fluoro-4-((5-(3-(1-hydroxyethyl)phenyl)pyrrolo[1,2-b]pyridazin-4-yl)oxy)phenyl)-1-(4-fluorophenyl)-2-oxo-1,2-dihydropyridin-3-carboxamide]
CC(O)c1cccc(-c2ccn3nccc(Oc4ccc(NC(=O)c5cccn(-c6ccc(F)cc6)c5=O)cc4F)c23)c1 (centres unmarked) [Example 47, N-(3-fluoro-4-((5-(3-(1-hydroxyethyl)phenyl)pyrrolo[1,2-b]pyridazin-4-yl)oxy)phenyl)-1-(4-fluorophenyl)-2-oxo-1,2-dihydropyridin-3-carboxamide]
CCOc1ccn(-c2ccc(F)cc2)c(=O)c1C(=O)Nc1ccc(Oc2ccnn3ccc(-c4cccc(CN5CCOCC5)c4)c23)c(F)c1 [Example 49]
CCOc1ccn(-c2ccc(F)cc2)c(=O)c1C(=O)Nc1ccc(Oc2ccnn3ccc(-c4cccc(C(=O)N5CCOCC5)c4)c23)c(F)c1 [Example 50, 4-ethoxy-N-(3-fluoro-4-((5-(3-morpholin-4-carbonylphenyl)pyrrolo[1,2-b]pyridazin-4-yl)oxy)phenyl)-1-(4-fluorophenyl)-2-oxo-1,2-dihydropyridin-3-carboxamide]
CCOc1ccn(-c2ccc(F)cc2)c(=O)c1C(=O)Nc1ccc(Oc2ccnn3ccc(-c4cccc(N)c4)c23)c(F)c1 [Example 53, 4-ethoxy-N-(3-fluoro-4-((5-(3-aminophenyl)pyrrolo[1,2-b]pyridazin-4-yl)oxy)phenyl)-1-(4-fluorophenyl)-2-oxo-1,2-dihydropyridin-3-carboxamide]
CCOc1ccn(-c2ccc(F)cc2)c(=O)c1C(=O)Nc1ccc(Oc2ccnn3ccc(-c4cccc(CN(C)C)c4)c23)c(F)c1 [Example 56, N-(4-((5-(3-((dimethylamino)methyl)phenyl)pyrrolo[1,2-b]pyridazin-4-yl)oxy)-3-fluorophenyl)-4-ethoxy-1-(4-fluorophenyl)-2-oxo-1,2-dihydropyridin-3-carboxamide]
Cc1ccc(-c2ccn3nccc(Oc4ccc(NC(=O)C5(C(=O)Nc6ccc(F)cc6)CC5)cc4F)c23)cc1N [Example 78]
Cc1c(N)cccc1-c1ccn2nccc(Oc3ccc(NC(=O)C4(C(=O)Nc5ccc(F)cc5)CC4)cc3F)c12 [Example 79]
COc1ccc(-c2ccn3nccc(Oc4ccc(NC(=O)C5(C(=O)Nc6ccc(F)cc6)CC5)cc4F)c23)cc1N [Example 82]
Nc1ccc(F)c(-c2ccn3nccc(Oc4ccc(NC(=O)C5(C(=O)Nc6ccc(F)cc6)CC5)cc4F)c23)c1 [Example 83]
